target: recombinant eIF4E (Homo sapiens (Human), UniProt P06730); test: Fluorescence polarization competition assay for eIF4E binding potency; conditions: inhibition of eIF4E/EDA-m7GDP-ATTO-550 binding; calculated IC50 values, Table 4B; read-out: IC50
Method in brief: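 FP readout; IC50 fit from 8-point, 3-fold series. 75 nM eIF4E + 20 nM ATTO-550-labelled m7GDP probe, Tris pH 7.5/NaCl/DTT/Tween buffer, 1% DMSO final. 30 min RT equilibration, light-protected.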

recombinant eIF4E, sequence (P06730 whole entry): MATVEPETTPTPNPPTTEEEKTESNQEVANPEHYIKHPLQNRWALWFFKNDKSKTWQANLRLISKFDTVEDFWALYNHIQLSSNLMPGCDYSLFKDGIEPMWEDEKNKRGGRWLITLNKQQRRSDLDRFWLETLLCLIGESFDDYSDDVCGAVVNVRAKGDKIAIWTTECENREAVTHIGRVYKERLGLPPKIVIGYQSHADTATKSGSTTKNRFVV

Structure (SMILES) | IC50
CCOP(=O)(OCC)c1csc2c(-c3cc(Cl)ccc3OCCn3c(C)nc4cc(C(F)(F)F)c(N5CCN(C6CC6)CC5)c(C#N)c4c3=O)ccnc12 [compound 1614] | 31.4 nM
Cc1nc2cc(C(F)(F)F)c(N3CCN(C4CC4)CC3)c(C#N)c2c(=O)n1CCOc1ccc(Cl)cc1-c1ccnc2c(P(=O)(O)O)csc12 [compound 1615] | 14.7 nM
CCOP(=O)(OCC)c1csc2c(-c3cc(Cl)ccc3OCCn3c(C)nc4cnc(N(C)C5CCN(CC(F)F)CC5)c(C#N)c4c3=O)ccnc12 [compound 1616] | 11.5 nM
Cc1nc2cnc(N(C)C3CCN(CC(F)F)CC3)c(C#N)c2c(=O)n1CCOc1ccc(Cl)cc1-c1ccnc2c(P(=O)(O)O)csc12 [compound 1617] | 15.6 nM
Cc1cc(-c2cc(Cl)ccc2OCCn2c(C)nc3cc(C(F)(F)F)c(N(C)C)c(C#N)c3c2=O)c2scc(C(=O)O)c2n1 [compound 1619] | 31.6 nM
COC(=O)c1csc2c(-c3cc(Cl)ccc3OCCn3c(C)nc4cnc(N(C)C5CCN(CC(F)(F)F)CC5)c(C#N)c4c3=O)ccnc12 [compound 1620] | 17.9 nM
Cc1cc(-c2cc(Cl)ccc2OCCn2c(C)nc3c(C)nc(CN(C)C)c(C#N)c3c2=O)c2scc(C(=O)O)c2n1 [compound 1621] | 72.1 nM
Cc1cc(-c2cc(Cl)ccc2OCCn2c(C)nc3c(C)nc(-c4c(F)cccc4F)c(C#N)c3c2=O)c2scc(C(=O)O)c2n1 [compound 1622] | 17.3 nM
Cc1cc(-c2cc(Cl)ccc2OCCn2c(C)nc3cnc(N[N+](C)(C)C)c(C#N)c3c2=O)c2scc(C(=O)O)c2n1 [compound 1631] | 16.1 nM
Cc1nc2cnc(N3CC[N+](CCO)(C(F)F)CC3)c(C#N)c2c(=O)n1CC#Cc1ccc(Cl)cc1-c1ccnc2c(C(=O)O)csc12 [compound 1644] | 14.5 nM
Cc1nc2cnc(N3CCC4(CC3)CN(CC(F)F)C4)c(C#N)c2c(=O)n1CC#Cc1ccc(Cl)cc1-c1ccnc2c(C(=O)NS(C)(=O)=O)csc12 [compound 1648] | 13.3 nM
Cc1nc2cnc(N(C)C3CCN(CCF)CC3)c(C#N)c2c(=O)n1CC#Cc1ccc(Cl)cc1-c1ccnc2c(C(=O)O)csc12 [compound 1653] | 26.5 nM
Cc1nc2cnc(N(C)C3CCN(CC(F)(F)F)CC3)c(C#N)c2c(=O)n1CC#Cc1ccc(Cl)cc1-c1ccnc2c(C(=O)NS(=O)(=O)c3cn(C)cn3)csc12 [compound 1667] | 12.2 nM
Cc1nc2cnc(N(C)C3CCN(CC(F)(F)F)CC3)c(C#N)c2c(=O)n1CC#Cc1ccc(Cl)cc1-c1ccnc2c(C(=O)NS(=O)(=O)c3ccnn3C)csc12 [compound 1668] | 5.67 nM
Cc1nc2cnc(N(C)C3CCN(CC(F)(F)F)CC3)c(C#N)c2c(=O)n1CC#Cc1ccc(Cl)cc1-c1ccnc2c(C(=O)NS(=O)(=O)CF)csc12 [compound 1669] | 9.17 nM
Cc1nc2cnc(N(C)C3CCN(CC(F)(F)F)CC3)c(C#N)c2c(=O)n1CC#Cc1ccc(Cl)cc1-c1ccnc2c(C(=O)NS(=O)(=O)CC#N)csc12 [compound 1670] | 5.68 nM
Cc1nc2cnc(N(C)C3CCN(CC(F)(F)F)CC3)c(C#N)c2c(=O)n1CC#Cc1ccc(Cl)cc1-c1ccnc2c(C(=O)NS(=O)(=O)CCC#N)csc12 [compound 1671] | 4.14 nM

Structure (SMILES) | IC50
Cc1nc2c(c(=O)n1CC#Cc1ccc(Cl)cc1-c1ccnc3c(C(=O)NS(=O)(=O)CC(C)(C)C#N)csc13)C(C#N)=C(N(C)C1CCN(CC(F)(F)F)CC1)NC2 [compound 1672] | 13.2 nM
Cc1nc2cnc(N(C)C3CCN(CC(F)(F)F)CC3)c(C#N)c2c(=O)n1CC#Cc1ccc(Cl)cc1-c1ccnc2c(C(=O)NS(=O)(=O)Cc3ccccn3)csc12 [compound 1673] | 7.22 nM
Cc1nc2cnc(N(C)C3CCN(CC(C)(F)F)CC3)c(C#N)c2c(=O)n1CC#Cc1ccc(Cl)cc1-c1ccnc2c(C(=O)NS(=O)(=O)c3ccc(C(F)(F)F)nc3)csc12 [compound 1674] | 6.5 nM
Cc1nc2cnc(N(C)C3CCN(CC(F)(F)F)CC3)c(C#N)c2c(=O)n1CC#Cc1ccc(Cl)cc1-c1ccnc2c(C(=O)NS(=O)(=O)c3cscn3)csc12 [compound 1675] | 4.11 nM
Cc1nc2cnc(N(C)C3CCN(CC(C)(F)F)CC3)c(C#N)c2c(=O)n1CC#Cc1ccc(Cl)cc1-c1ccnc2c(C(=O)NS(=O)(=O)c3ccn(C)n3)csc12 [compound 1676] | 4.33 nM
Cc1nc2cnc(N(C)C3CCN(CC(F)(F)F)CC3)c(C#N)c2c(=O)n1CC#Cc1ccc(Cl)cc1-c1ccnc2c(C(=O)NS(=O)(=O)C3CC(F)(F)C3)csc12 [compound 1677] | 12.9 nM
Cc1cccc(S(=O)(=O)NC(=O)c2csc3c(-c4cc(Cl)ccc4C#CCn4c(C)nc5cnc(N(C)C6CCN(CC(C)(F)F)CC6)c(C#N)c5c4=O)ccnc23)n1 [compound 1678] | 28 nM
Cc1nc2cnc(N(C)C3CCN(CC(C)(F)F)CC3)c(C#N)c2c(=O)n1CC#Cc1ccc(Cl)cc1-c1ccnc2c(C(=O)NS(=O)(=O)c3ccc(C(F)(F)F)cn3)csc12 [compound 1679] | 29.3 nM
Cc1ccc(S(=O)(=O)NC(=O)c2csc3c(-c4cc(Cl)ccc4C#CCn4c(C)nc5cnc(N(C)C6CCN(CC(C)(F)F)CC6)c(C#N)c5c4=O)ccnc23)cn1 [compound 1680] | 23.3 nM
COc1ccc(S(=O)(=O)NC(=O)c2csc3c(-c4cc(Cl)ccc4C#CCn4c(C)nc5cnc(N(C)C6CCN(CC(C)(F)F)CC6)c(C#N)c5c4=O)ccnc23)cn1 [compound 1681] | 8.27 nM
Cc1cc(S(=O)(=O)NC(=O)c2csc3c(-c4cc(Cl)ccc4C#CCn4c(C)nc5cnc(N(C)C6CCN(CC(C)(F)F)CC6)c(C#N)c5c4=O)ccnc23)ccn1 [compound 1682] | 15.1 nM
COc1cc(S(=O)(=O)NC(=O)c2csc3c(-c4cc(Cl)ccc4C#CCn4c(C)nc5cnc(N(C)C6CCN(CC(C)(F)F)CC6)c(C#N)c5c4=O)ccnc23)ccn1 [compound 1683] | 18.3 nM
Cc1nc2cnc(N(C)C3C[C@H]4C[C@@H]3CN4CC(C)(F)F)c(C#N)c2c(=O)n1CC#Cc1ccc(Cl)cc1-c1ccnc2c(C(=O)O)csc12 (stereo partly shown) [compound 1689] | 22.2 nM
Cc1nc2cnc(N(C)[C@H]3[C@@H]4CC[C@H]3CN(CC(C)(F)F)C4)c(C#N)c2c(=O)n1CC#Cc1ccc(Cl)cc1-c1ccnc2c(C(=O)O)csc12 [compound 1690] | 27.4 nM
Cc1nc2cnc(N(C)C3[C@@H]4C[C@H]3CN(CC(C)(F)F)C4)c(C#N)c2c(=O)n1CC#Cc1ccc(Cl)cc1-c1ccnc2c(C(=O)O)csc12 (stereo partly shown) [compound 1691] | 17.9 nM
Cc1nc2cnc(N(C)C3CCN(CC(F)(F)C(F)F)CC3)c(C#N)c2c(=O)n1CC#Cc1ccc(Cl)cc1-c1ccnc2c(C(=O)NS(C)(=O)=O)csc12 [compound 1703] | 6 nM

More lines, now with the values ahead:

IC50 | Structure (SMILES)
16.1 nM | Cc1nc2cc(C(F)(F)F)c(N3CCN(C)CC3)c(C#N)c2c(=O)n1CCOc1ccc(Cl)cc1-c1ccnc2c(P(=O)(O)O)csc12 [compound 1613]
4.17 nM | Cc1nc(N2CCN(CCF)CC2)c(C#N)c2c(=O)n(CCOc3ccc(Cl)cc3-c3ccnc4c(C(=O)O)csc34)c(C)nc12 [compound 1624]
30.3 nM | Cc1nc2cnc(C3=CCNCC3)c(C#N)c2c(=O)n1CCOc1ccc(Cl)cc1-c1ccnc2c(C(=O)O)csc12 [compound 1626]
52.6 nM | Cc1nc2cnc(N3CC4(CNC4)C3)c(C#N)c2c(=O)n1CC#Cc1ccc(Cl)cc1-c1ccnc2c(C(=O)O)csc12 [compound 1633]
17.4 nM | Cc1nc2cnc(N3CC4(CCN4CC(F)F)C3)c(C#N)c2c(=O)n1CCOc1ccc(Cl)cc1-c1ccnc2c(C(=O)O)csc12 [compound 1634]
21.5 nM | Cc1nc2cnc(N3CC4(CCN4CC(C)(C)F)C3)c(C#N)c2c(=O)n1CCOc1ccc(Cl)cc1-c1ccnc2c(C(=O)O)csc12 [compound 1635]
17.7 nM | Cc1nc2cnc(N3CCN(C(C)C)CC3)c(C#N)c2c(=O)n1CC#Cc1ccc(Cl)cc1-c1ccnc2c(C(=O)O)csc12 [compound 1637]
38.8 nM | Cc1nc2cnc(N3CCN(C4CC4(C)C)CC3)c(C#N)c2c(=O)n1CCOc1ccc(Cl)cc1-c1ccnc2c(C(=O)O)csc12 (stereo not shown) [compound 1638]
18.9 nM | Cc1nc2cnc(N3CCN(C4(C)CC(F)(F)C4)CC3)c(C#N)c2c(=O)n1CCOc1ccc(Cl)cc1-c1ccnc2c(C(=O)O)csc12 [compound 1641]
24.5 nM | Cc1nc2cnc(N3CCN([C@H]4C[C@@H]4C(F)(F)F)CC3)c(C#N)c2c(=O)n1CCOc1ccc(Cl)cc1-c1ccnc2c(C(=O)O)csc12 [compound 1642]
18.8 nM | Cc1nc2cnc(N3CCN(C4(CC(F)F)CC4)CC3)c(C#N)c2c(=O)n1CCOc1ccc(Cl)cc1-c1ccnc2c(C(=O)O)csc12 [compound 1643]
23.2 nM | Cc1nc2cnc(N3CC4CC3CN4C)c(C#N)c2c(=O)n1CCOc1ccc(Cl)cc1-c1ccnc2c(C(=O)O)csc12 (stereo not shown) [compound 1645]
26.3 nM | Cc1nc2cnc(N3CCN(C4CC4)C4(CC4)C3)c(C#N)c2c(=O)n1CCOc1ccc(Cl)cc1-c1ccnc2c(C(=O)O)csc12 [compound 1646]
19.6 nM | Cc1nc2cnc(N3CCC4(CC3)CCN4CC(F)F)c(C#N)c2c(=O)n1CCOc1ccc(Cl)cc1-c1ccnc2c(C(=O)O)csc12 [compound 1647]
18.3 nM | Cc1nc2cnc(N3CCCC4(CCN4CC(F)F)C3)c(C#N)c2c(=O)n1CCOc1ccc(Cl)cc1-c1ccnc2c(C(=O)O)csc12 (stereo not shown) [compound 1649]
21 nM | Cc1nc2cnc(N(C)C3CCN(CC(C)F)CC3)c(C#N)c2c(=O)n1CCOc1ccc(Cl)cc1-c1ccnc2c(C(=O)O)csc12 (stereo not shown) [compound 1654]
13.4 nM | Cc1nc2cnc(N(C)C3CCN(CC(C)(C)F)CC3)c(C#N)c2c(=O)n1CCOc1ccc(Cl)cc1-c1ccnc2c(C(=O)O)csc12 [compound 1655]
22.1 nM | Cc1nc2cnc(N(C)C3CCN(C(C)C(F)F)CC3)c(C#N)c2c(=O)n1CCOc1ccc(Cl)cc1-c1ccnc2c(C(=O)O)csc12 (stereo not shown) [compound 1662]
12.7 nM | Cc1nc2cnc(N(C)C3C[C@H]4C[C@@H]3CN4CC(C)(F)F)c(C#N)c2c(=O)n1CCOc1ccc(Cl)cc1-c1ccnc2c(C(=O)O)csc12 (stereo partly shown) [compound 1688]

Source: patent publication US11286268B1, “EIF4E-inhibiting compounds and methods” (EFFECTOR THERAPEUTICS, INC., priority 2019, dated 2022)
